Measured values from US7977352B2, “Triazolopyridine compounds useful for the treatment of degenerative and inflammatory diseases” (Galapagos NV, priority 2006, dated 2011).

Assays:
[1] = test system: MMP1 expression by activated synovial fibroblasts (RASFs); experiment: MMP assay: MMP1 expression by RASFs triggered with TNF-α (MMP1 ELISA); type: cell-based; conditions: Fibroblast, 48 h, TNF-α trigger 10 ng/mL, semi-quantitative score, read-out: REDUCTION MMP1/TNFa
Procedure: A 384-well format ELISA for measurement of MMP1 is developed. Various primary antibodies are tested, as well as various ELISA protocols. The following protocol is developed and validated to measure MMP1 levels in SF supernatant in 384 well plates: white Lumitrac 600 384 well plates (Greiner) are coated with 2 μg/mL anti-MMP1 antibody MAB1346 (Chemicon). The antibody is diluted in buffer 40 (1.21 g Tris base (Sigma), 0.58 g NaCl (Calbiochem) and 5 mL 10% NaN3 (Sigma) in 1 L milliQ water and adjusted to pH 8.5). After overnight incubation at 4° C., plates are washed with PBS (80 g NaCl, 2 g KCl (Sigma), 11.5 g Na2HPO4.7H2O and 2 g KH2PO4 in 10 L milliQ; pH 7.4) and blocked with 100 μL/well Casein buffer (2% Casein (VWR International) in PBS). Next day, casein buffer is removed from ELISA plates and replaced by 50 μL/well EC buffer (4 g casein, 2.13 g Na2HPO4 (Sigma), 2 g bovine albumin (Sigma), 0.69 g NaH2PO4.H2O (Sigma), 0.5 g CHAPS (Roche), 23.3 g NaCl, 4 mL 0.5 M EDTA pH 8 (Invitrogen), 5 mL 10% NaN3 in 1 L milliQ and adjusted to pH 7.0). 0.25 mM DTT (Sigma) is added to the thawed sample plates. After removal of the EC buffer, 20 μL of sample is transferred to the ELISA plates. After overnight incubation at 4° C. plates are washed twice with PBS and once with PBST (PBS with 0.05% Tween-20 (Sigma)) and incubated with 35 μL/well biotinylated anti-MMP1 antibody solution (R&D). This secondary antibody is diluted in buffer C (0.82 g NaH2PO4.H2O, 4.82 g Na2HPO4, 46.6 g NaCl, 20 g bovine albumin and 4 mL 0.5M EDTA pH 8 in 2 L milliQ and adjusted to pH 7.0) at a concentration of 5 μg/mL. After 2 h of incubation at RT, plates are washed as described above and incubated with 50 μL/well streptavidin-HRP conjugate (Biosource). Streptavidin-HRP conjugate is diluted in buffer C at a concentration of 0.25 μg/mL. After 45 min, plates are washed as described above and incubated for 5 min with 50 μL/well BM Chem ELISA Substrate (Roche). Readout is performed on the Luminoscan Ascent Luminometer (Labsystems) with an integration time of 200 msec or with an Envision reader (Perkin Elmer).
SFs were acquired at passage 1 from a commercial supplier (Cell applications, Inc.). SFs are cultured in DMEM supplemented with 10% heat-inactivated FBS, 1× penicillin/streptomycin (Invitrogen) at 37° C., 10% CO2 until passage 6. Aliquots of the cells are frozen and cryopreserved in liquid nitrogen. Starting from a cryopreserved aliquot, cells are further expanded by sub-culturing cells at 1/3 ratio every week. Cells between passage 10 and 12 are routinely used in compound testing according to following protocol.
Starting from the compound master stocks (all at 10 mM concentration in 100% DMSO) a 3-fold serial dilution is made in 96-well plates in 100% DMSO. Then, plates are further diluted 45-fold in M199 medium supplemented with 1% heat-inactivated FBS to obtain a intermediate work stock.
At day 1, RASFs are seeded in 96 well plates (flat bottom, tissue culture treated, Greiner) at a density of 3000 cells/well in complete synovial growth medium (Cell Applications). Day 5, the medium is completely removed from the cells, and replaced by 81 μL of M199 medium supplemented with 1% heat-inactivated FBS followed by addition of 10 μL compound out of the intermediate work stock. After an incubation period of 90 minutes, which allows the compounds to equilibrate and enter the cells, cells are stimulated with either TNF-α or ‘complex trigger’. TNF-α trigger is added in a volume of […] to obtain final concentration of 10 ng/mL. For that, TNF-α stock (PeproTech) at 10 μg/mL was diluted to 100 ng/mL TNF-a in M199 medium supplemented with 1% FBS. ‘Complex trigger’ mix is added in a volume of 20 μL to obtain a final concentration of 12.5%. For that, ‘complex trigger’ mix, is diluted to 80% with M199 medium supplemented with 1% FBS. […]

TAK1-TAB1 fusion protein = biological target: T1, TAK1-TAB1 fusion protein (Homo sapiens, UniProt O43318); experiment: In vitro TAK1 kinase assay; type: biochemical; conditions: casein substrate, [33P]-γ-ATP, 90 minutes at 30° C., semi-quantitative score, read-out: POTENCY TAK1 (MAP3K7)
T1 construct: purchased Upstate 14-600
T1 sequence (O43318 with tags, fused parts or gaps limits assumed): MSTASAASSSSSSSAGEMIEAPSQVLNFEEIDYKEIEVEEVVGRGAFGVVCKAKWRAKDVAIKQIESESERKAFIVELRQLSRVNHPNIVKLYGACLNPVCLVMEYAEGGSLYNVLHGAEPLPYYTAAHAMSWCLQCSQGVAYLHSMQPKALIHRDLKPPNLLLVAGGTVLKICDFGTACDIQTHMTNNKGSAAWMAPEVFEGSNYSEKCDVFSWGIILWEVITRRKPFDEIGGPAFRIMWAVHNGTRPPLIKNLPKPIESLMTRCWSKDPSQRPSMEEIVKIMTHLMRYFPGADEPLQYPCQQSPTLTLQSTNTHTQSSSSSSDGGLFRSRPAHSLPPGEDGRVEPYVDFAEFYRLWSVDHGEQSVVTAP
Procedure: For assessing TAK1 inhibition, active TAK1-TAB1 fusion protein was used from Upstate (Cat. No, 14-600). Kinase reactions are set up in 96-well polypropylene plates in 25 μL containing 0.5 mU TAK1-TAB1 fusion protein, 5mM ATP, 0.01 μCi/μL [^33P]-γ-ATP, 0.1 mg/mL casein substrate in 1× reaction buffer containing 10 mM MOPS pH 7.0, 1 mM EDTA.
Starting from the compound master stocks (all at 10 mM concentration in 100% DMSO) a 3-fold serial dilution is made in 96-well plates in 100% DMSO. Plates are further diluted […] in H2O containing 3.5% DMSO, to obtain an intermediate work stock with compounds at 5× the final assay concentration in 5% DMSO.
5 μL of the intermediate stock is transferred into V-bottom 96 well polypropylene plates and 11 μL of Enzyme mix is added. Enzyme mix is made by combining 5 μL 5× reaction buffer ([…] pH 7.0, 1 mM EDTA), 5 μL casein (Sigma) diluted in H20 to 0.5 mg/mL and 1 μL of TAK1-TAB1 fusion protein that was prediluted to 0.5 mU/μL in 1× enzyme dilution buffer (20 mM MOPS pH 7.0, 0.1 mM EDTA, 0.01% Brij-35, 5% glycerol, 1 mM DTT, 1 mg/ml BSA).
The reactions are started by the addition of 9 μL of mixture containing ATP (20.83 uM) and [^33P]-γ-ATP (0.028 μCi/μL).
The assay is stopped 90 minutes after incubation at 30° C. by the addition of 25 μL phosphoric acid (150 mM). The label incorporated into the casein substrate is separated from labeled unincorporated ATP by filtration onto 96-well filter plates using a harvester device. After 6 washes with 75 mM phosphoric acid, the bottom of the filter plates are sealed, and incorporated label is quantified after addition of 40 μL scintillation fluid using TopCount.

IC50 (TAK1-TAB1 fusion protein) [µM]	SMILES	IC50 [1] [µM]
> 10	CC(C)N1CCN(c2ccc(Nc3ccc(-c4ccc(F)c(C(N)=O)c4)n4ncnc34)cc2)CC1 [Example 46, 2-fluoro-5-(8-{[4-(4-isopropylpiperazin-1-yl)phenyl]amino}[1,2,4]triazolo[1,5-a]pyridin-5-yl)benzamide]	> 10
> 10	COc1cc(-c2ccc(Nc3ccc(N4CCN(C5CC5)CC4)cc3)c3ncnn23)ccn1 [Example 30, N-[4-(4-cyclopropylpiperazin-1-yl)phenyl]-5-(2-methoxypyridin-4-yl)[1,2,4]triazolo[1,5-a]pyridin-8-amine]	1 to 5
< 0.5	C[C@@H]1CN(C)[C@@H](C)CN1c1ccc(Nc2ccc(-c3cc[nH]c(=O)c3)n3ncnc23)cc1 (racemic) [Example 10, rel-4-[8-({4-[(2R,5S)-2,4,5-trimethylpiperazin-1-yl]phenyl}amino)[1,2,4]triazolo[1,5-a]pyridin-5-yl]pyridin-2(1H)-one]	0.501 to 1
> 10	CCC(CC)N1CCN(c2ccc(Nc3ccc(-c4ccnc(OC)c4)n4ncnc34)cc2)CC1 [Example 28, N-{4-[4-(1-ethylpropyl)piperazin-1-yl]phenyl}-5-(2-methoxypyridin-4-yl)[1,2,4]triazolo[1,5-a]pyridin-8-amine]	1 to 5
< 0.5	CC(C)CCN1CCN(c2ccc(Nc3ccc(-c4ccc(C(N)=O)cc4)n4ncnc34)cc2)CC1 [Example 15, 4-[8-({4-[4-(3-methylbutyl)piperazin-1-yl]phenyl}amino)[1,2,4]triazolo[1,5-a]pyridin-5-yl]benzamide]	1 to 5
> 10	CC(C)N1CCN(c2ccc(Nc3ccc(-c4ccc5cc[nH]c5c4)n4ncnc34)cc2)CC1 [Example 53, 5-(1H-indol-6-yl)-N-[4-(4-isopropylpiperazin-1-yl)phenyl][1,2,4]triazolo[1,5-a]pyridin-8-amine]	> 10
> 10	CC(C)N1CCN(c2ccc(Nc3ccc(-c4c[nH]c(=O)[nH]c4=O)n4ncnc34)cc2)CC1 [Example 55, 5-(8-{[4-(4-isopropylpiperazin-1-yl)phenyl]amino}[1,2,4]triazolo[1,5-a]pyridin-5-yl)pyrimidine-2,4(1H,3H)-dione]	> 10
< 0.5	O=c1cc(-c2ccc(Nc3ccc(N4CCN(C5CC5)CC4)cc3)c3ncnn23)cc[nH]1 [Example 23, 4-(8-{[4-(4-cyclopropylpiperazin-1-yl)phenyl]amino}[1,2,4]triazolo[1,5-a]pyridin-5-yl)pyridin-2(1H)-one]	1 to 5
> 10	COc1ncc(-c2ccc(Nc3ccc(N4CCN(C(C)C)CC4)cc3)c3ncnn23)c(OC)n1 [Example 56, 5-(2,4-dimethoxypyrimidin-5-yl)-N-[4-(4-isopropylpiperazin-1-yl)phenyl][1,2,4]triazolo[1,5-a]pyridin-8-amine]	> 10
1 to 5	NC(=O)c1ccc(-c2ccc(Nc3ccc(N4CCN(C5CC5)CC4)cc3)c3ncnn23)cc1 [Example 18, 4-(8-{[4-(4-cyclopropylpiperazin-1-yl)phenyl]amino}[1,2,4]triazolo[1,5-a]pyridin-5-yl)benzamide]	1 to 5
< 0.5	C[C@@H]1CN(c2ccc(Nc3ccc(-c4cc[nH]c(=O)c4)n4ncnc34)cc2)C[C@H](C)N1C [Example 57, 4-[8-({4-[(3R,5S)-3,4,5-trimethylpiperazin-1-yl]phenyl}amino)[1,2,4]triazolo[1,5-a]pyridin-5-yl]pyridin-2(1H)-one]	1 to 5
> 10	NC(=O)c1cccc(-c2ccc(Nc3ccc(N4CCOCC4)cc3)c3ncnn23)c1 [Example 43, 3-{8-[(4-morpholin-4-ylphenyl)amino][1,2,4]triazolo[1,5-a]pyridin-5-yl}benzamide]	> 10
> 10	CC(C)N1CCN(c2ccc(Nc3ccc(-c4cccc(C(N)=O)c4)n4ncnc34)cc2)CC1 [Example 44, 3-(8-{[4-(4-isopropylpiperazin-1-yl)phenyl]amino}[1,2,4]triazolo[1,5-a]pyridin-5-yl)benzamide]	1 to 5
